Data from article PMC2671563 (PLoS Biology, 2009).

T1: human S100A9 binding to human RAGE (Homo sapiens, UniProt P06702)
T1 construct: purchased R&D Systems (RAGE/Fc); S100A9 made in house
T1 sequence (P06702 1-114): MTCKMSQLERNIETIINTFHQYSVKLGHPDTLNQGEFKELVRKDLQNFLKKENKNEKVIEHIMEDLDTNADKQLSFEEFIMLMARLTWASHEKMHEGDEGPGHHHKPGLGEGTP

T2: human S100A9 binding to human TLR4/MD2 (Homo sapiens, UniProt P06702)
T2 construct: purchased R&D Systems (TLR4/MD-2 complex); S100A9 made in house
T2 sequence (P06702 1-114): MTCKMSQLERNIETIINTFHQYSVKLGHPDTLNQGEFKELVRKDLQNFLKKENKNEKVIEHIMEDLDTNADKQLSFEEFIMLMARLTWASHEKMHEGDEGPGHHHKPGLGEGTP

T3: mS100A9 (Mus musculus, UniProt P31725)
T3 construct: made in house; host or cells: Escherichia coli (or purified from granulocytes)
T3 sequence (P31725 1-113): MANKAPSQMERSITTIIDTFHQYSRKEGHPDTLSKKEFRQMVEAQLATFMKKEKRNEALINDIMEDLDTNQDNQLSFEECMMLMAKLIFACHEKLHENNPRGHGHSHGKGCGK

T4: mS100A9 and mRAGE/hFc (Mus musculus, UniProt P31725)
T4 construct: purchased R&D Systems (mRAGE/Fc); S100A9 made in house
T4 sequence (P31725 2-113 limits assumed): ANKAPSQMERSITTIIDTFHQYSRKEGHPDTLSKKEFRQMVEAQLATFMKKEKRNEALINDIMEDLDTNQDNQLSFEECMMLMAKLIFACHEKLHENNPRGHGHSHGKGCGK

T5: mS100A9 and mLPS-Trap (Mus musculus, UniProt P31725)
T5 sequence (P31725 2-113 limits assumed): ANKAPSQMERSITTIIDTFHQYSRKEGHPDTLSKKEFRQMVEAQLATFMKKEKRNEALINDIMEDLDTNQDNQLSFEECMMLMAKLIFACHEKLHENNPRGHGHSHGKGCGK

T6: mS100A8/A9 and mRAGE (Mus musculus, UniProt P31725)
T6 construct: purchased R&D Systems (mRAGE/Fc); S100A8/A9 made in house
T6 sequence (P31725 2-113 limits assumed): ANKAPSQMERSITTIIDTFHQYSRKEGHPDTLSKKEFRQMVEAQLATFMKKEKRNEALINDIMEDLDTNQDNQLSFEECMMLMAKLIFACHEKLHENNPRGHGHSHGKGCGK
T6 sequence (P27005 2-89 partner limits assumed): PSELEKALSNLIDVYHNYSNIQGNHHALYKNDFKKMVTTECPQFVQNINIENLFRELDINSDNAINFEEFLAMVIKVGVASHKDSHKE

T7: mS100A8/A9 and mLPS-Trap (Mus musculus, UniProt P31725)
T7 sequence (P31725 2-113 limits assumed): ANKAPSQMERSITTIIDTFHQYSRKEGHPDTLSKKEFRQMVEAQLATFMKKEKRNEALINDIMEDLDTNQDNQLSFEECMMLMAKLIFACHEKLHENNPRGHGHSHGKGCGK

T8: human S100A9 (Homo sapiens, UniProt P06702)
T8 construct: made in house; host or cells: Escherichia coli (or purified from granulocytes)
T8 sequence (P06702 1-114): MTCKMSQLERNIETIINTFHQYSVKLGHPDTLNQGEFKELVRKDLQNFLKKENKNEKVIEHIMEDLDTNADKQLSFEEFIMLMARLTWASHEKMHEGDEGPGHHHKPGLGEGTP


Legend:
[1] = target: T1, human S100A9 binding to human RAGE; assay: SPR: inhibition of human S100A9 binding to immobilised human RAGE; details: read-out: S100A9 binding IC50, hS100A9 RAGE; Table S1
Protocol: (§1) The SPR analysis was carried out with the Biacore 3000 system (GE Healthcare). Sensor chips, amine coupling kit, immobilization and running buffers, and regeneration solutions were obtained from GE Healthcare. Working solutions of all reagents used for Biacore analysis were prepared in 0.01 M Hepes, 0.15 M NaCl (pH 7.4) containing 0.005% v/v Surfactant P-20 (HBS-P; GE Healthcare) by buffer exchange on Fast Protein Desalting Micro-Spin Columns from Pierce. ABR-215757 was immobilised onto a CM5 chip through an amino-linker (ABR-224649). […] Activity of ligands after immobilisation was tested by injecting specific antibodies (unpublished data). In some experiments, S100A9 was immobilized either by random amine coupling or with a known orientation (i.e., by sulhydryl group conjugation to the only cysteine in S100A9 at position 3).
(§2) Binding to the various surfaces was performed by injecting the analyte at a flow rate of 30 μl/min in a physiological buffer (HBS-P) containing 1 mM Ca^2+ and 10 μM Zn^2+ as proposed for S100A8/9 by Robinson et al.. A typical analysis cycle consists of: (1) pumping running buffer for 1 min to obtain a stable baseline; (2) injection of sample for an appropriate period of time (association); (3) pumping running buffer for 2.5 min (dissociation); (4) injection of a short pulse (30 s) of 15 μl 10 mM glycine-HCl (pH 2.0) (regeneration); and (5) pumping running buffer for 2 min (stabilisation after regeneration) at a flow rate of 30 μl/min. […] In one experiment, S100A9 was injected into a buffer with a fixed Ca^2+ concentration (1 mM) and Zn^2+ in the range 0–50 μM. In a second experiment, Ca^2+ was varied from 0–2 mM at a fixed Zn^2+ concentration (10 μM). In subsequent analyses, regeneration was carried out under more mild conditions, i.e., by injecting 30 μl of HBS-P containing 3 mM EDTA (HBS-EP; GE Healthcare) for 60 s, to prolong the lifespan of the chip.
(§3) Compounds were also injected over the immobilised surfaces in the absence of S100A9 to exclude, or make possible correction for, any direct binding of compound to the surface.
(§4) Evaluation was carried out using BIAevaluation Software version 3.2 (GE Healthcare). The response at steady-state was obtained by fit of sensorgrams to standard binding models, where appropriate, or calculated as responses at late association or early dissociation phase using the Steady state affinity function in BIAevaluation. Affinity was determined from kinetic analysis (on- and off-rates) or as the apparent affinity after plotting responses versus concentration of analyte in a saturation curve. In the inhibition assay format, the competitor concentration yielding 50% inhibition (IC50) was calculated by fitting data to a one-site competition model in GraphPad Prism.

[2] = target: T2, human S100A9 binding to human TLR4/MD2; assay: SPR: inhibition of human S100A9 binding to immobilised human TLR4/MD2; details: for IC50: Table S1, read-out: S100A9 binding IC50, hS100A9 TLR4
Protocol: as §1, §2, §3, §4

mS100A9 = target: T3, mS100A9; assay: SPR: inhibition of mouse S100A9 binding to immobilised ABR-224649; details: Table S1
Protocol: as §1, §2, §3, §4

mS100A9 and mRAGE/hFc = target: T4, mS100A9 and mRAGE/hFc; assay: SPR: inhibition of mouse S100A9 binding to immobilised mouse RAGE; details: read-out: S100A9 binding IC50, mS100A9 RAGE; Table S1
Protocol: as §1, §2, §3, §4

mS100A9 and mLPS-Trap = target: T5, mS100A9 and mLPS-Trap; assay: SPR: inhibition of mouse S100A9 binding to immobilised mouse TLR4/MD2 fusion protein (mLPS-Trap); details: for IC50: Table S1
Protocol: as §1, §2, §3, §4

mS100A8/A9 and mRAGE = target: T6, mS100A8/A9 and mRAGE; assay: SPR: inhibition of mouse S100A8/A9 binding to mouse RAGE; details: read-out: S100A8-9 binding IC50, mS100A8/A9 RAGE; Table S1
Protocol: as §1, §2, §3, §4

mS100A8/A9 and mLPS-Trap = target: T7, mS100A8/A9 and mLPS-Trap; assay: SPR: inhibition of mouse S100A8/A9 binding to mLPS-Trap; details: Table S1; read-out: S100A8-9 binding IC50, mS100A8/A9 TLR4
Protocol: as §1, §2, §3, §4

[3] = tested on: aEAE development in SLJ/N mice; assay: acute experimental autoimmune encephalomyelitis (aEAE) in mice; type: in vivo, mouse
Excerpt: A training set of five quinoline derivatives with structural diversification performed at position 5 of the quinoline ring system was used for the SAR. PCA was used to uncover any relationship between the binding activities of the quinoline derivatives at the S100 proteins and the inhibitory effect of these derivatives in the aEAE model. PLS was then used to model the relationship between the physiochemical descriptors used to characterize the compounds and their biological responses. […] All variables were mean centred and scaled to unit variance.

human S100A9 = target: T8, human S100A9; assay: SPR: human S100A9 binding to immobilised ABR-224649 (Q compound), direct binding and displacement
Protocol: as §1, §2, §3, §4

mouse S100A9 (mouse) = mouse S100A9 (mouse) (UniProt P31725); assay: SPR; competition: 100 nM mouse S100A9 injected over amine-coupled mLPS-Trap with soluble mLPS-Trap (100, 200, 400 nM) as competitor
mouse RAGE/Fc = target: T9, mouse RAGE/Fc (mouse, UniProt Q62151-1 23-340); assay: SPR; 50 and 100 nM mouse S100A9, or 100 nM mouse S100A8/A9, injected (3 min at 30 ul/min) over mouse RAGE/Fc or mLPS-Trap coupled to the sensor chip; details: both partners purified
T9 construct: RAGE, mouse; also called mRAGE; mRAGE/hFc; source: bought: R&D Systems (carrier-free recombinant)
T9 sequence (Q62151 23-340): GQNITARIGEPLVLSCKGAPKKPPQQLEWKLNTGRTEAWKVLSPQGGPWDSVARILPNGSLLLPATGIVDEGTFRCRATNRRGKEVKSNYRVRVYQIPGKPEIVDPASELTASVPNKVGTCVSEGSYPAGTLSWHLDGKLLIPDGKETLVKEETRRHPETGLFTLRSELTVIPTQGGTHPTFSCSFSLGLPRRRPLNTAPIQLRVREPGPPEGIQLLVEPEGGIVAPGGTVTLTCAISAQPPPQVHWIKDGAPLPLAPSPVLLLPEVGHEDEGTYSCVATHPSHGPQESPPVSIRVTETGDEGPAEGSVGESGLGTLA

Row | Molecule | IC50 [1] [µM] | IC50 [2] [µM] | IC50 (mS100A9) [µM] | IC50 (mS100A9 and mRAGE/hFc) [µM] | IC50 (mS100A9 and mLPS-Trap) [µM] | IC50 (mS100A8/A9 and mRAGE) [µM] | IC50 (mS100A8/A9 and mLPS-Trap) [µM] | aEAE Inhibition ED50 [3] [mg/kg] | other results
1 | CCN(C(=O)c1c(O)c2ccccc2n(C)c1=O)c1ccccc1 [ABR-212662] | 436 | 415 | 1940 | 1030 | 1970 | 720 | 576 | 1.87 | –
2 | CCN(C(=O)c1c(O)c2c(C)cccc2n(C)c1=O)c1ccccc1 [ABR-215111] | 168 | 217 | 1340 | 783 | 1240 | 310 | 293 | 0.55 | –
3 | CCN(C(=O)c1c(O)c2c(SC)cccc2n(C)c1=O)c1ccccc1 [ABR-215628] | 135 | 154 | 906 | 447 | 780 | 174 | 257 | 0.20 | –
4 | CCN(C(=O)c1c(O)c2c(C(F)(F)F)cccc2n(C)c1=O)c1ccccc1 [ABR-215629] | – | 79 | 916 | 230 | 741 | 351 | 301 | 0.13 | –
5 | CCN(C(=O)c1c(O)c2c(Br)cccc2n(C)c1=O)c1ccccc1 [ABR-215727] | 78.7 | 87.9 | 522 | 191 | 440 | 164 | 200 | 0.16 | –
6 | CCc1cccc2c1c(O)c(C(=O)N(CCOCCN)c1ccccc1)c(=O)n2C [ABR-224649] | – | – | – | – | – | – | – | – | ability to displace S100A9 binding to immobilised ABR-224649 (human S100A9; coinjected with S100A9, unpublished data): very similar ability to displace binding as ABR-215757; Kd (human S100A9; steady-state responses vs 25–200 nM S100A9, 1 mM Ca2+, 10 μM Zn2+, read-out: half-maximal binding of S100A9 to immobilised ABR-224649): 0.085 µM
7 | lipopolysaccharide [LPS, reference compound] | – | – | – | – | – | – | – | – | effect on hS100A9 binding to immobilised hTLR4/MD2 ([2]; 200 ng/ml): no effect; effect on mS100A9 binding to immobilised mLPS-Trap (mS100A9 and mLPS-Trap): no effect
8 | mouse TLR4/MD2 fusion protein (mLPS-Trap) | – | – | – | – | – | – | – | – | percent inhibition of mS100A9 binding to immobilised mLPS-Trap at 100 nM competitor (mouse S100A9 (mouse)): 22%; percent inhibition of mS100A9 binding to immobilised mLPS-Trap at 200 nM competitor (mouse S100A9 (mouse)): 51%; percent inhibition of mS100A9 binding to immobilised mLPS-Trap at 400 nM competitor (mouse S100A9 (mouse)): 70%
9 | mouse S100A9 (natural protein, UniProt P31725 1-113, looked up, S100A9, mouse; called homodimeric; also called mS100A9; murine S100A9; source: either produced recombinantly in Escherichia coli or purified from granulocytes) MANKAPSQMERSITTIIDTFHQYSRKEGHPDTLSKKEFRQMVEAQLATFMKKEKRNEALINDIMEDLDTNQDNQLSFEECMMLMAKLIFACHEKLHENNPRGHGHSHGKGCGK | – | – | – | – | – | – | – | – | binding result (mouse RAGE/Fc): binds
10 | mouse S100A8/A9 heterodimer (complex, S100A8, mouse; S100A9, mouse; also called mS100A8/A9; murine S100A8/A9; source: either produced recombinantly in Escherichia coli or purified from granulocytes) chain 1: MPSELEKALSNLIDVYHNYSNIQGNHHALYKNDFKKMVTTECPQFVQNINIENLFRELDINSDNAINFEEFLAMVIKVGVASHKDSHKE chain 2: MANKAPSQMERSITTIIDTFHQYSRKEGHPDTLSKKEFRQMVEAQLATFMKKEKRNEALINDIMEDLDTNQDNQLSFEECMMLMAKLIFACHEKLHENNPRGHGHSHGKGCGK | – | – | – | – | – | – | – | – | binding result (mouse RAGE/Fc): binds
